# System: human peripheral blood mononuclear cells (PBMC)
# Experiment: HTS assay for small molecule immune potentiators: TNF-a production by human PBMC (sandwich ELISA)
# Format: cell-based
# Conditions: human PBMC 500,000 per mL, 18 h at 37° C., secreted TNF by sandwich ELISA
# From the text: Candidate small molecule immune potentiators can be identified in vitro. Compounds are screened in vitro for their ability to stimulate human peripheral blood mononuclear cells to produce cytokines (e.g. TNF-a and IL-12 p40). Apoptosis inducing small molecules may be identified having this activity. These small molecule immunopotentiators have potential utility as adjuvants and immunotherapeutics.
# In an assay procedure (High Throughput Screening (HTS)) for small molecule immune potentiators (SMIPs), human peripheral blood mononuclear cells (PBMC), 500,000 per mL in RPMI 1640 medium with 10% FCS, are distributed in 96 well plates (100,000 per well) already containing 5 μM of compound in DMSO. The PBMCs are incubated for 18 h at 37° C. in 5% CO2. Their ability to produce cytokines in response to the small molecule compounds is determined using a modified sandwich ELISA.
# Briefly supernatants from the PBMC cultures are assayed for secreted TNF using a primary plate bound antibody for capture followed by a secondary biotinylated anti-TNF antibody forming a sandwich. The biotinylated second antibody is then detected using streptavidin-Europium and the amount of bound europium is determined by time resolved fluorescence. Compounds are screened for their TNF inducing activity that is measured in the assay as increased Europim counts over cells incubated in RPMI medium alone. “Hits” are selected based on their TNF-inducing activity relative to an optimal dose of lipopolysaccaride LPS (1 μg/ml), a strong TNF inducer. The robustness of the assay and low backgrounds have allowed for the routine selection of hits with ˜10% of LPS activity that is normally between 5-10× background (cells alone). Selected hits are then subjected to confirmation for their ability to induce cytokines from multiple donors at decreasing concentrations. Those compounds with consistent activity at or below 5 μM are considered confirmed for the purposes of this assay. The assay is readily modified for screening for compounds effective at higher or lower concentrations.
row,Compound,minimal effective concentration [µM]
1,"O=C1c2cc([N+](=O)[O-])ccc2-n2c1nc1ccccc1c2=O [Compound 1001, 8-nitroindolo[2,1-b]quinazoline-6,12-dione]",≤ 1.5
2,"O=C1c2cc(F)ccc2-n2c1nc1ccc(Cl)cc1c2=O [Compound 1002, 2-chloro-8-fluoroindolo[2,1-b]quinazoline-6,12-dione]",≥ 5
3,"O=C1c2cc(F)ccc2-n2c1nc1ccc(F)cc1c2=O [Compound 1003, 2,8-difluoroindolo[2,1-b]quinazoline-6,12-dione]",≥ 5
4,"O=C1c2cc(F)ccc2-n2c1nc1cc(F)ccc1c2=O [Compound 1004, 3,8-difluoroindolo[2,1-b]quinazoline-6,12-dione]",≤ 1.5
5,"O=C1c2cccc(F)c2-n2c1nc1ccccc1c2=O [Compound 1005, 10-fluoroindolo[2,1-b]quinazoline-6,12-dione]",≤ 1.5
6,"O=C1c2cc(F)ccc2-n2c1nc1cccc(F)c1c2=O [Compound 1006, 1,8-difluoroindolo[2,1-b]quinazoline-6,12-dione]",≤ 1.5
7,"Cc1cccc2nc3n(c(=O)c12)-c1ccc(F)cc1C3=O [Compound 1007, 8-fluoro-1-methylindolo[2,1-b]quinazoline-6,12-dione]",≤ 1.5
8,"O=C1c2cc(F)cc(F)c2-n2c1nc1ccccc1c2=O [Compound 1008, 8,10-difluoroindolo[2,1-b]quinazoline-6,12-dione]",≤ 1.5
9,"O=C1c2cc(F)ccc2-n2c1nc1c(F)cccc1c2=O [Compound 1009, 4,8-difluoroindolo[2,1-b]quinazoline-6,12-dione]",≥ 5
10,"O=C1c2cc(I)ccc2-n2c1nc1c(Br)cc(Br)cc1c2=O [Compound 1010, 2,4-dibromo-8-iodoindolo[2,1-b]quinazoline-6,12-dione]",≥ 5
11,"Cc1cc(Cl)cc2c1-n1c(nc3ccccc3c1=O)C2=O [Compound 1011, 8-chloro-10-methylindolo[2,1-b]quinazoline-6,12-dione]",≥ 5
12,"CC(C)(C)OC(=O)N1CCN(c2cc3nc4n(c(=O)c3cc2F)-c2ccc(I)cc2C4=O)CC1 [Compound 1012, 1,1-dimethylethyl 4-(2-fluoro-8-iodo-6,12-dioxo-6,12-dihydroindolo[2,1-b]quinazolin-3-yl)piperazine-1-carboxylate]",≥ 5
13,"O=C1c2cc(I)ccc2-n2c1nc1c(Br)cc(Br)c(F)c1c2=O [Compound 1013, 2,4-dibromo-1-fluoro-8-iodoindolo[2,1-b]quinazoline-6,12-dione]",≤ 1.5
14,"O=C1c2cc(I)ccc2-n2c1nc1c(Br)cc(Br)c(Cl)c1c2=O [Compound 1014, 2,4-dibromo-1-chloro-8-iodoindolo[2,1-b]quinazoline-6,12-dione]",≤ 1.5
15,"O=C1c2ccccc2-n2c1nc1c(Br)cc(Br)c(F)c1c2=O [Compound 1015, 2,4-dibromo-1-fluoroindolo[2,1-b]quinazoline-6,12-dione]",≤ 1.5
16,"O=C1c2cc(Cl)ccc2-n2c1nc1ccc(I)cc1c2=O [Compound 1016, 8-chloro-2-iodoindolo[2,1-b]quinazoline-6,12-dione]",≤ 1.5
17,"O=C1c2cc(Cl)ccc2-n2c1nc1cc(F)ccc1c2=O [Compound 1017, 8-chloro-3-fluoroindolo[2,1-b]quinazoline-6,12-dione]",≤ 1.5
18,"O=C1c2cc(Cl)ccc2-n2c1nc1cc(N3CCCCC3)ccc1c2=O [Compound 1018, 8-chloro-3-piperidin-1-ylindolo[2,1-b]quinazoline-6,12-dione]",≥ 5
19,"O=C1c2cc(F)ccc2-n2c1nc1c(O)cccc1c2=O [Compound 1019, 8-fluoro-4-hydroxyindolo[2,1-b]quinazoline-6,12-dione]",≤ 1.5
20,"CCNC(=O)c1ccc2c(c1)C(=O)c1nc3c(OC)cccc3c(=O)n1-2 [Compound 1020, N-ethyl-4-(methyloxy)-6,12-dioxo-6,12-dihydroindolo[2,1-b]quinazoline-8-carboxamide]",≤ 1.5
21,"O=C1c2cc(OC(F)(F)F)ccc2-n2c1nc1ccccc1c2=O [Compound 1021, 8-[(trifluoromethyl)oxy]indol o[2,1-b]quinazoline-6,12-dione]",≥ 5

row,Compound,minimal effective concentration [µM]
1,"O=C1c2cc(OC(F)(F)F)ccc2-n2c1nc1cc(F)ccc1c2=O [Compound 1022, 3-fluoro-8-[(trifluoromethyl)oxy]indol o[2,1-b]quinazoline-6,12-dione]",≤ 1.5
2,"O=C1c2cc(OC(F)(F)F)ccc2-n2c1nc1cc(SCCO)ccc1c2=O [Compound 1023, 3-[(2-hydroxyethyl)thio]-8-[(trifluoromethyl)oxy]indol o[2,1-b]quinazoline-6,12-dione]",≤ 1.5
3,"O=C1c2ccccc2-n2c1nc1ncccc1c2=O [Compound 1024, pyrido[2′,3′:4,5]pyrimido[1,2-a]indole-5,11-dione]",≤ 1.5
4,"O=C1c2cc(F)ccc2-n2c1nc1ncccc1c2=O [Compound 1025, 9-fluoropyrido[2′,3′:4,5]pyri-mido[1,2-a]indole-5,11-dione]",≤ 1.5
5,"O=C1c2cc(Br)ccc2-n2c1nc1ncccc1c2=O [Compound 1026, 9-bromopyrido[2′,3′:4,5]pyri-mido[1,2-a]indole-5,11-dione]",≤ 1.5
6,"O=C1c2cc(Cl)ccc2-n2c1nc1ncccc1c2=O [Compound 1027, 9-chloropyrido[2′,3′:4,5]pyri-mido[1,2-a]indole-5,11-dione]",≤ 1.5
7,"O=C1c2cc(I)ccc2-n2c1nc1ncccc1c2=O [Compound 1028, 9-iodopyrido[2′,3′:4,5]pyrimi-do[1,2-a]indole-5,11-dione]",≤ 1.5
8,"CCOC(=O)c1ccc2c(c1)C(=O)c1nc3ncccc3c(=O)n1-2 [Compound 1029, ethyl 5,11-dioxo-5,11-dihydropyrido[2′,3′:4,5]py-rimido[1,2-a]indole-9-carboxylate]",≤ 1.5
9,"CCCCCCCCNS(=O)(=O)c1ccc2c(c1)C(=O)c1nc3ncccc3c(=O)n1-2 [Compound 1030, N-octyl-5,11-dioxo-5,11-dihydropyrido[2′,3′:4,5]py-rimido[1,2-a]indole-9-sulfonamide]",≤ 1.5
10,"O=C1c2c(cccc2C(F)(F)F)-n2c1nc1ncccc1c2=O [Compound 1031, 10-(trifluoromethyl)pyrido[2′, 3′:4,5]pyrimido[1,2-a]indole-5,11-dione]",≤ 1.5
11,"CCOP(=O)(CCCC/C=C/c1ccc2c(c1)C(=O)c1nc3ncccc3c(=O)n1-2)OCC [Compound 1032, diethyl (5E)-6-(5,11-dioxo-5,11-dihydropyrido[2′,3′:4,5]py-rimido[1,2-a]indol-9-yl)hex-5-enylphosphonate]",≥ 5
12,"CC(=O)OCCCC/C=C/c1ccc2c(c1)C(=O)c1nc3ncccc3c(=O)n1-2 [Compound 1033, (5E)-6-(5,11-dioxo-5,11-dihydropyrido[2′,3′:4,5]py-rimido[1,2-a]indol-9-yl)hex-5-enyl acetate]",≤ 1.5
13,"O=C1c2cc(C(F)(F)F)ccc2-n2c1nc1ncccc1c2=O [Compound 1034, 9-(trifluoromethyl)pyrido[2′, 3′:4,5]pyrimido[1,2-a]indole-5,11-dione]",≥ 5
14,"O=C1c2cc(CCCCCCOP(=O)(O)O)ccc2-n2c1nc1ncccc1c2=O [Compound 1035, 6-(5,11-dioxo-5,11-dihydropyrido[2′,3′:4,5]py-rimido[1,2-a]indol-9-yl)hexyl dihydrogen phosphate]",≤ 1.5
15,"O=C1c2cc(OC(F)(F)F)ccc2-n2c1nc1ncccc1c2=O [Compound 1036, 9-[(trifluoromethyl)oxy]pyri-do[2′,3′:4,5]pyrimido[1,2-a]indole-5,11-dione]",≤ 1.5
16,"O=C1c2ccccc2-n2c1nc1ccccc1c2=O [Compound 1037, indolo[2,1-b]quinazoline-6,12-dione]",≥ 20
17,"O=C1c2cc(Cl)ccc2-n2c1nc1ccccc1c2=O [Compound 1038, 8-chloroindolo[2,1-b]quinazoline-6,12-dione]",≥ 20
18,"CCOC(=O)c1ccc2c(c1)C(=O)c1nc3ccccc3c(=O)n1-2 [Compound 1039, ethyl 6,12-dioxo-6,12-dihydroindolo[2,1-b]quinazoline-8-carboxylate]",≥ 20
19,"O=C1c2cc(I)ccc2-n2c1nc1c(O)cccc1c2=O [Compound 1040, 4-hydroxy-8-iodoindolo[2,1-b]quinazoline-6,12-dione]",≥ 20
20,"O=C1c2cc(I)ccc2-n2c1nc1c(Cl)cc(Cl)cc1c2=O [Compound 1041, 2,4-dichloro-8-iodoindolo[2,1-b]quinazoline-6,12-dione]",≥ 20
